Experimental data from patent US20250281480A1, “PHARMACEUTICAL DRY POWDER INHALATION FORMULATION” (Bayer Aktiengesellschaft, priority 2021, published 2025).

Experiments:
[1] = system: anesthetized PAH minipigs; experiment: PAH minipig, intratracheal application of dry powder formulations and of different hydrates (PAP, BP); format: in vivo, Göttingen Minipigs; settings: 375 μg/kg i.t.
Procedure: Healthy Göttingen Minipigs® Ellegaard (Ellegaard, Denmark) of both sexes and having a weight of 2-6 kg were used. The animals were sedated by i.m. administration of about 25 mg/kg ketamine and about 10 mg/kg azaperone. Anaesthesia was initiated by i.v. administration of about 2 mg/kg ketamine and about 0.3 mg/kg midazolam. Maintenance of anaesthesia was by i.v. administration of about 7.5-30 mg/kg/h ketamine and about 1-4 mg/kg/h midazolam (rate of infusion 1-4 ml/kg/h) and about 150 μg/kg/h pancuronium bromide (for example Pancuronium-Actavis). After intubation, the animals were ventilated by the ventilator at a constant respiratory volume (10-12 ml/kg, 35 breaths/min; Avea®, Viasys Healthcare, USA, or Engström Carestation, GE Healthcare, Freiburg, Germany) such that an end-tidal CO2 concentration of about 5% was achieved. Ventilation was performed with room air, enriched with about 40% oxygen (normoxia). For the measurement of the haemodynamic parameters such as pulmonary arterial pressure (PAP), blood pressure (BP) and heart rate (HR), catheters were inserted into the carotid artery to measure the blood pressure, and a Swan-Ganz® catheter was introduced in a flow-directed manner via the jugular vein into the pulmonary artery. The haemodynamic signals were recorded and evaluated by means of pressure transducers (Combitransducer, B. Braun, Melsungen, Germany)/amplifiers and Ponemah® as data acquisition software.
About 0.3-0.75 μg/kg/min of 9,11-didesoxy-9α,11α-epoxymethanoprostaglandine F2α (U-44069; Sigma, cat. no. D0400, or Cayman Chemical Company, cat. no. 16440), dissolved in physiological saline, were infused to achieve an increase of the mean pulmonary arterial pressure to values of over 25 mmHg.
After characterization of the effects of comparative example 11 after nebulization of compound solutions, in a further step the effects of crystalline forms of comparative example 11, e.g. sesquihydrate, e.g. example 6e on PAP and BP after inhaled application of different dry powder lactose formulations (table 52) were studied in anesthetized PAH minipigs.
As reference pure Lactose vehicle was applied in the beginning of each experiment.

[2] = system: cGMP; experiment: Phase I, healthy male subjects, inhaled once daily for 7 days: cGMP in blood samples; format: in vivo, human
Procedure: (§1) Healthy White male subjects, aged 18 to 45 years and with a body mass index (BMI) above/equal 18.5 and below/equal 29.9 kg/m2 were treated in a clinical pharmacological phase I study on seven days with inhaled once daily doses of 480 or 1000 or 2000 μg (2 capsules of 1000 μg) (nominal dose) of dry powder formulations of example 2 or Placebo. The subjects inhaled the drug powder from capsules (see under C, e.g. tables 22 and 23) inserted into a handheld inhalation device by one deep inhalative breath. The dry powder formulation of the drug is dispersed into the airstream and fine particles are transported into the deep parts of the lung where it is intended to cause a vasodilation of the blood vessels in PH patients for a substantial reduction of increased blood pressure in the central pulmonary blood vessels in PAH patients or other subtypes of PH. This effect cannot be shown in subjects with healthy lungs. In addition inhaled drug causes a dilation of the bronchial airways and thus also improves disease states of lung diseases in PH patients with pathological bronchoconstriction. This effect was measured via bodyplethysmography as reduction of Specific Airway Resistance in healthy subjects. After the deep inhalative breath the subjects hold breath for 2 seconds, so that the dry powder drug condenses from the airstream onto the surface of the deeper lung areas where it is deposited close to its site of intended pharmacological action. The drug dissolutes over the day and equilibrates the lung via lining fluid.
Drug activity in healthy men was controlled in the healthy subjects by analysing blood samples for cGMP, the immediate product of sGC pharmacological activation prior after the first and after the last drug inhalation of the 7 days treatment in comparison to measurements on the pretreatment day for all doses.

[3] = system: healthy male subjects; experiment: Phase I, healthy male subjects, 7 days: bodyplethysmography, total specific airway resistance (sRaw); format: in vivo, human
Procedure: as §1, with “After the deep inhalative breath the subjects hold breath for 2 seconds, so that the dry powder drug condenses from the airstream onto the surface of the deeper lung areas where it is deposited close to its site of intended pharmacological action. The drug dissolutes over the day and equilibrates the lung via lining fluid.” left out

[4] = Phase I, healthy male subjects, 7 days: plasma concentrations over time; format: in vivo, human; settings: after first inhalation, all doses
Procedure: as §1, with “After the deep inhalative breath the subjects hold breath for 2 seconds, so that the dry powder drug condenses from the airstream onto the surface of the deeper lung areas where it is deposited close to its site of intended pharmacological action. The drug dissolutes over the day and equilibrates the lung via lining fluid.” left out

[5] = Storage stability of pseudopolymorphic forms (XRPD); format: physicochemical
[6] = Micronization of monohydrate II and monohydrate I (spiral jet mill): solid form after micronization; format: physicochemical
From the text: Generally no amorphization even partial nor form conversion should happen during the necessary micronization step.
The corresponding batches (examples 8a-8d) were micronized using a 50 mm spiral jet mill and pressurized nitrogen with the following parameters (see table 16b).
The corresponding batches were micronized using a 100 mm spiral jet mill and pressurized nitrogen with the following parameters (see table 16c).

[7] = XRPD
Procedure: There was no sample preparation.
3 g (5S)—{[2-(4-Carboxyphenyl)ethyl][2-(2-{[3-chloro-4′-(trifluoromethyl)biphenyl-4-yl]methoxy}-phenyl)ethyl]amino}-5,6,7,8-tetrahydroquinoline-2-carboxylic acid monohydrate I, (material prepared in analogy to example 3/4) were suspended in 20 mL of methanol. The suspension was stirred at ambient conditions for eight days. The residue was filtered and the resulting solid was dryed at ambient conditions. • water content: 4.8% water • Raman: see table 13, see FIG. 17 • IR: see table 14, see FIG. 24 • XRPD: see table 12, see FIG. 10

Compound: O=C(O)c1ccc(CCN(CCc2ccccc2OCc2ccc(-c3ccc(C(F)(F)F)cc3)cc2Cl)[C@H]2CCCc3nc(C(=O)O)ccc32)cc1 [Example 2, (5S)—{[2-(4-Carboxyphenyl)ethyl][2-(2-{[3-chloro-4′-(trifluoromethyl)biphenyl-4-yl]methoxy}phenyl)-ethyl]amino}-5,6,7,8-tetrahydroquinoline-2-carboxylic Acid as Monohydrate II]
- efficacy with regard to PAP reduction and systemic BP reduction ([1]; micronized hydrates): comparable efficacy
- PAP(mean) ([1]; time 160, per animal): 27.8 mmHg
- cGMP over time (means) ([2]; 480 μg inhaled once daily, 7 D 15 H 00 M): 8.56 ± 2.80 nmol/L
- cGMP over time (means) ([2]; 480 μg inhaled once daily, 8 D 00 H 00 M): 7.20 ± 3.23 nmol/L
- cGMP over time (means) ([2]; 480 μg inhaled once daily, 8 D 12 H 00 M): 6.20 ± 2.00 nmol/L
- cGMP over time (means) ([2]; 480 μg inhaled once daily, 9 D 00 H 00 M): 5.64 ± 2.53 nmol/L
- cGMP over time (means) ([2]; 480 μg inhaled once daily, −0 D 09 H 00 M): 5.60 ± 1.08 nmol/L
- cGMP over time (means) ([2]; 480 μg inhaled once daily, −1 D 02 H 00 M): 5.40 ± 1.41 nmol/L
- cGMP over time (means) ([2]; 1000 μg inhaled once daily, 5 D 00 H 00 M): 8.50 ± 2.13 nmol/L
- cGMP over time (means) ([2]; 1000 μg inhaled once daily, −0 D 20 H 00 M): 4.78 ± 1.37 nmol/L
- cGMP over time (means) ([2]; 1000 μg inhaled once daily, −0 D 22 H 00 M): 5.10 ± 1.46 nmol/L
- cGMP over time (means) ([2]; 2000 μg inhaled once daily, 2 D 00 H 00 M): 6.40 ± 2.09 nmol/L
- cGMP over time (means) ([2]; 2000 μg inhaled once daily, 3 D 00 H 00 M): 10.00 ± 3.51 nmol/L
- cGMP over time (means) ([2]; 2000 μg inhaled once daily, 8 D 00 H 00 M): 16.00 ± 5.77 nmol/L
- cGMP over time (means) ([2]; 2000 μg inhaled once daily, 9 D 12 H 00 M): 9.40 ± 3.10 nmol/L
- cGMP over time (means) ([2]; 2000 μg inhaled once daily, −0 D 18 H 00 M): 4.32 ± 1.33 nmol/L
- total specific airway resistance (means) ([3]; 480 μg inhaled once daily, 0 D 06 H 00 M): 0.800 ± 0.187 kPa/sec
- total specific airway resistance (means) ([3]; 2000 μg inhaled once daily, 7 D 06 H 00 M): 0.730 ± 0.151 kPa/sec
- measurable plasma concentration persisted for [4]: 48 h
- Result (solid form after storage) ([5]; example 7a: brown glass snap on closure, 25° C., 60% relative humidity): monohydrate II
- Result (solid form after storage) ([5]; example 7b: polyethylene, 25° C., 60% relative humidity): monohydrate I
- Result (solid form after storage) ([5]; example 7c: polyethylene, 40° C., 75% relative humidity): monohydrate I
- Result (solid form after storage) ([5]; example 7d: brown glass closed with paper filter disc, 40° C., 75% relative humidity): monohydrate I
- XRPD after micronization ([6]; example 2 batch): monohydrate II with partial amorphization
- solid form after micronization ([6]; example 8a: VA jet mill (diameter 50 mm), 25° C.): transformation from monohydrate II to monohydrate I
- solid form after micronization ([6]; example 8b, several conditions, even low stress): partial amorphization

Compound: O.O.O=C(O)c1ccc(CCN(CCc2ccccc2OCc2ccc(-c3ccc(C(F)(F)F)cc3)cc2Cl)[C@H]2CCCc3nc(C(=O)O)ccc32)cc1 [Example 6f]
- solid form after drying [7]: went amorphous
